Values quoted from earlier work in patent US20240109913A1, “NEW SPIRO[3H-INDOLE-3,2'-PYRROLIDIN]-2(1H)-ONE COMPOUNDS AND DERIVATIVES AS MDM2-P53 INHIBITORS” (Boehringer Ingelheim International GmbH, priority 2014, published 2024).

Columns and labels:
[1] = system: p53 wild-type vs. p53 mutant cell lines; settings: in vitro (Carol et al. 2013)
[2] = system: acute lymphoblastic leukemia (ALL) xenograft models with mixed-lineage leukemia (MLL) rearrangement; settings: ALL xenograft models with MLL rearrangement (Carol et al. 2013)
[3] = system: solid tumor xenograft models; settings: solid tumor xenograft models (Carol et al. 2013)
[4] = system: human acute myeloid leukemia (AML) and human prostate tumor xenograft models harboring p53 wild-type; settings: p53 wild-type (Tovar et al. 2013)

CCOc1cc(C(C)(C)C)ccc1C1=N[C@@](C)(c2ccc(Cl)cc2)[C@@](C)(c2ccc(Cl)cc2)N1C(=O)N1CCN(CCCS(C)(=O)=O)CC1 [RG-7112]
cytotoxic activity, median IC50 [1]: lower median IC50 values for p53 wild-type vs. p53 mutant cell lines
efficacy in ALL xenograft models [2]: particularly efficacious
tumor growth inhibition [3]: induced tumor growth inhibition

CCOc1cc(C(C)(C)C)ccc1C1=N[C@@](C)(c2ccc(Cl)cc2)[C@@](C)(c2ccc(Cl)cc2)N1C(=O)N1CCN(CCCS(C)(=O)=O)CC1 [RG7112]
antiproliferative and proapoptotic activity [4]: antiproliferative and proapoptotic activity of RG7112 has been observed
